Source: patent US7235548B2, “Compounds and their use as positive AMPA receptor modulators” (NeuroSearch A/S, priority 1998, dated 2007)
pIC50: −log10 of the molar value.

System: not given
Assay: not given
Details: not given

| melting point [°C] | SMILES |
| --- | --- |
| 231 to 233 | Cc1cc2c(cc1S(N)(=O)=O)S(=O)(=O)NC(C1CCCCC1)N2 (stereo not shown) [Compound 113, 3-Cyclohexyl-6-methyl-7-sulfamoyl-1,2,3,4-tetrahydro-1,2,4-benzothiadiazine-1,1-dioxide] |

Target: ionotropic quisqualate (AMPA) receptors
Assay: In vitro inhibition of 3H-AMPA binding
Details: 5 nM 3H-AMPA, rat cerebral cortex membranes, 30 min at 2° C.; read-out: IC50 (concentration of the test substance which inhibits the specific binding of 3H-AMPA by 50%)
From the text: L-glutamate (GLU) is the major excitatory neurotransmitter in the mammalian central nervous system. From electrophysiological- and binding studies, there appear to be at least three subtypes of GLU receptors, tentatively named N-methyl-D-aspartate (NMDA)-, quisqualate- and kainate receptors. GLU receptor subtypes sensitive to quisqualate and kainate as a group are often referred to as non-NMDA receptors. Receptor binding studies using the labelled agonists ^3H-AMPA (α-amino-3-hydroxy-5-methyl-4-isoxazolepropionic acid) (for quisqualate receptors) and ^3H-kainate (for kainate receptors) have shown different antagonist selectivities and regional distribution. AMPA has been known for several years to be a potent and selective agonist at the traditionally named quisqualate receptors. Activation of quisqualate receptors by AMPA is associated with Na^+ influx and K^+ efflux leading to depolarization.
The non-NMDA receptors have recently been reclassified to include the quisqualate activated metabotropic receptor type, linked to the inositol triphosphate and diacylglycerate metabolism. […] Selective activation of the metabotropic type has been claimed for trans-ACPD. Recently, the potent and competitive non-NMDA receptor antagonists CNQX and NBQX have been described, and CNQX have been reported not to block the effect of quisqualate at the metabotropic receptor subtype. ^3H-AMPA is a selective radioligand for labelling the ionotropic quisqualate (AMPA) receptors.
Preparations are performed at 0–4° C. unless otherwise indicated. Cerebral cortex from male Wistar rats (150–200 g) is homogenized for 5–10 sec in 20 ml Tris-HCl (30 mM, pH 7.4) using an Ultra-Turrax homogenizer. The suspension is centrifuged at 27,000×g for 15 min and the pellet is washed three times with buffer (centrifuged at 27,000×g for 10 min). The washed pellet is homogenized in 20 ml of buffer and incubated on a water bath (37° C.) for 30 min to remove endogenous glutamate and then centrifuged for 10 min at 27,000×g. The pellet is then homogenized in buffer and centrifuged at for 10 min at 27,000×g. The final pellet is resuspended in 30 ml buffer and the preparation is frozen and stored at −20° C.
The membrane preparation is thawed and centrifuged at 2° C. for 10 min at 27,000×g for 10 min. The pellet is washed twice with 20 ml 30 mM Tris-HCl containing 2.5 mM CaCl2, pH 7.4 using an Ultra-Turrax homogenizer and centrifuged for 10 min at 27,000×g. The final pellet is resuspended in 30 mM Tris-HCl containing 2.5 mM CaCl2 and 100 mM KSCN, pH 7.4 (100 ml per g of original tissue) and used for binding assays. Aliquots of 0.5 (0.2) ml are added to 25 (20) μl of test solution and 25(20) μl of ^3H-AMPA (5 nM, final concentration), mixed and incubated for 30 min at 2° C. Non-specific binding is determined using L-glutamate (0.6 mM, final concentration). After incubation the 550 μl samples are added 5 ml of ice-cold buffer and poured directly onto Whatman GF/C glass fibre filters under suction and immediately washed with 5 ml of ice-cold buffer. The 240 μl samples are filtered over glass fibre filter using a Skatron cell harvrester. The filters are washed with 3 ml ice-cold buffer. The amount of radioactivity on the filters is determined by conventional liquid scintillation counting. Specific binding is total binding minus non-specific binding.
The test value will be given as the IC50 (the concentration (μM) of the test substance which inhibits the specific binding of ^3H-AMPA by 50%)

| pIC50 | SMILES |
| --- | --- |
| 4.89 | Cc1cc2c(cc1S(N)(=O)=O)S(=O)(=O)NC(C1CCCCC1)N2 (stereo not shown) [Compound 113, 3-Cyclohexyl-6-methyl-7-sulfamoyl-1,2,3,4-tetrahydro-1,2,4-benzothiadiazine-1,1-dioxide] |
| 5.46 | NS(=O)(=O)c1ccc2c(c1)S(=O)(=O)NC(C1CCCCC1)N2 (stereo not shown) [Compound 44, 3-Cyclohexyl-7-sulfamoyl-1,2,3,4-tetrahydro-1,2,4-benzothiadiazine-1,1-dioxide] |
| 5.28 | CN(C)S(=O)(=O)c1ccc2c(c1)S(=O)(=O)NC(C1CCCCC1)N2 (stereo not shown) [Compound 47, 3-Cyclohexyl-7-dimethylaminosulfonyl-1,2,3,4-tetrahydro-1,2,4-benzothiadiazine-1,1-dioxide] |
| 4.77 | O=S1(=O)NC(C2CCCCC2)Nc2ccc(S(=O)(=O)N3CCCC3)cc21 (stereo not shown) [Compound 49, 3-Cyclohexyl-7-pyrrolidinosulfonyl-1,2,3,4-tetrahydro-1,2,4-benzothiadiazine-1,1-dioxide] |
| 4.59 | O=S1(=O)NC(C2CC3C=CC2C3)Nc2ccc(S(=O)(=O)N3CCCCC3)cc21 (stereo not shown) [Compound 57, 3-Bicyclo[2.2.1]hept-5′-en-2′-yl-7-piperidinosulfonyl-1,2,3,4-tetrahydro-1,2,4-benzothiadiazine-1,1-dioxide] |
| 5.22 | CS(=O)(=O)N1CCN(S(=O)(=O)c2ccc3c(c2)S(=O)(=O)NC(C2CCCCC2)N3)CC1 (stereo not shown) [Compound 62, 3-Cyclohexyl-7-(4′-methylsulfonylpiperazino)sulfonyl-1,2,3,4-tetrahydro-1,2,4-benzothiadiazine-1,1-dioxide] |
